Source: US6706663B2, “Herbicidal 3-heterocyclic substituted benzisothiazole and benzisoxazole compounds” (Wyeth, priority 2000, dated 2004)

Key:
[1] = test system: CASOB (Cassia obtusifolia); assay: Postemergence herbicidal evaluation; assay type: in vivo, L.
Outline: (§1)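 Seedlings grown about two weeks in flats, sprayed, then kept under standard greenhouse care. Rated visually 4–5 weeks after treatment on a 0–9 scale (stand, vigour, malformation, size, chlorosis, overall appearance) relative to untreated control; repeat tests averaged.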

[2] = test system: CHEAL (Chenopodium album); assay: Postemergence herbicidal evaluation; assay type: in vivo, L.
Outline: as §1

[3] = test system: AMBEL (Ambrosia artemisifolia); assay: Postemergence herbicidal evaluation; assay type: in vivo, L.
Outline: as §1

[4] = test system: ZEAMX (Corn, Field); assay: Postemergence herbicidal evaluation; assay type: in vivo, Zea mays, L.
Outline: as §1

[5] = test system: IPOHE (Ipomoea hederacea); assay: Preemergence herbicidal evaluation; assay type: in vivo, (L.) Jacq.; conditions: preemergence, rated 4-5 weeks after treatment
[6] = test system: SAGPY (Sagittaria pygmaea); assay: Flooded paddy, preemergence weed control; assay type: in vivo, L.; conditions: rated 3-4 weeks after treatment, 0-9 rating scale
Outline: (§2)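 In this preemergence paddy assay, weed seeds or organs are sown at up to 0.5 cm in silt loam and covered by 1.5–3 cm of water for the full test period. After treatment the pots are kept in a greenhouse, and herbicidal effect is rated 0-9 visually against a control.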

[7] = test system: ORYSAT (Rice, Tebonnet); assay: Preemergence herbicidal evaluation; assay type: in vivo, Oryza sativa, (L.) Tebonnet; conditions: preemergence, rated 4-5 weeks after treatment
[8] = test system: ORYSAT (Rice, Tebonnet); assay: Postemergence herbicidal evaluation; assay type: in vivo, Oryza sativa, (L.) Tebonnet
Outline: as §1

[9] = test system: ECHORC (Echinochloa oryzoides); assay: Flooded paddy, preemergence weed control; assay type: in vivo, Echinochloa oryzoides (Ard.) Fritsch.; conditions: rated 3-4 weeks after treatment, 0-9 rating scale
Outline: as §2

[10] = test system: ECHCG (Echinochloa crus-galli); assay: Postemergence herbicidal evaluation; assay type: in vivo, (L.) Beau
Outline: as §1

[11] = test system: TRZAWR (Wheat, Winter, cv Riband); assay: Preemergence herbicidal evaluation; assay type: in vivo, Triticum aestivum; conditions: preemergence, rated 4-5 weeks after treatment
Outline: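 Seeds planted in potting soil cups and sprayed preemergence with aqueous acetone compound solution. Greenhouse-grown; rated 4–5 weeks after treatment on a 0-9 visual scale (stand, vigor, malformation, size, chlorosis, appearance) versus control.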

[12] = test system: CYPIR (Cyperus iria); assay: Flooded paddy, preemergence weed control; assay type: in vivo; conditions: rated 3-4 weeks after treatment, 0-9 rating scale
Outline: as §2

[13] = test system: GLXMAW (Soybean, Williams); assay: Preemergence herbicidal evaluation; assay type: in vivo, Glycine max, (L.) Merr. cv Williams; conditions: preemergence, rated 4-5 weeks after treatment

Compound: Cc1nnc(-c2nsc3ccc(-n4c(=O)cc(C(F)(F)F)n(C)c4=O)cc23)s1 [Compound 17, 1-methyl-3-[3-(5-methyl-1,3,4-thiadiazol-2-yl)-1,2-benzisothiazol-5-yl]-6-(trifluoromethyl)uracil]
- Postemergence herbicidal rating, CASOB ([1]; rate 0.0320 kg/ha): 0.0
- Postemergence herbicidal rating, CASOB ([1]; rate 0.0620 kg/ha): 0.0
- Postemergence herbicidal rating, CASOB ([1]; rate 0.1250 kg/ha): 2.0
- Postemergence herbicidal rating, CASOB ([1]; rate 0.2500 kg/ha): 2.0
- Postemergence herbicidal rating, CHEAL ([2]; rate 0.0320 kg/ha): 3.0
- Postemergence herbicidal rating, CHEAL ([2]; rate 0.0620 kg/ha): 3.0
- Postemergence herbicidal rating, CHEAL ([2]; rate 0.1250 kg/ha): 4.0
- Postemergence herbicidal rating, CHEAL ([2]; rate 0.2500 kg/ha): 9.0
- Postemergence herbicidal rating, AMBEL ([3]; rate 0.0320 kg/ha): 4.0
- Postemergence herbicidal rating, AMBEL ([3]; rate 0.0620 kg/ha): 9.0
- Postemergence herbicidal rating, AMBEL ([3]; rate 0.1250 kg/ha): 9.0
- Postemergence herbicidal rating, AMBEL ([3]; rate 0.2500 kg/ha): 9.0
- Postemergence herbicidal rating, ZEAMX ([4]; rate 0.0320 kg/ha): 4.0
- Postemergence herbicidal rating, ZEAMX ([4]; rate 0.0620 kg/ha): 4.0
- Postemergence herbicidal rating, ZEAMX ([4]; rate 0.1250 kg/ha): 4.0
- Postemergence herbicidal rating, ZEAMX ([4]; rate 0.2500 kg/ha): 5.0
- IPOHE preemergence herbicidal rating ([5]; Rate 0.0620 kg/ha): 0.0
- IPOHE preemergence herbicidal rating ([5]; Rate 0.1250 kg/ha): 2.0
- IPOHE preemergence herbicidal rating ([5]; Rate 0.2500 kg/ha): 9.0
- herbicidal rating, SAGPY ([6]; rate 0.0080 kg/ha): 0.0
- herbicidal rating, SAGPY ([6]; rate 0.0320 kg/ha): 2.5
- herbicidal rating, SAGPY ([6]; rate 0.1250 kg/ha): 5.5
- ORYSAT preemergence herbicidal rating ([7]; Rate 0.0620 kg/ha): 0.0
- ORYSAT preemergence herbicidal rating ([7]; Rate 0.1250 kg/ha): 0.0
- ORYSAT preemergence herbicidal rating ([7]; Rate 0.2500 kg/ha): 1.0
- Postemergence herbicidal rating, ORYSAT ([8]; rate 0.0320 kg/ha): 1.0
- Postemergence herbicidal rating, ORYSAT ([8]; rate 0.0620 kg/ha): 1.5
- Postemergence herbicidal rating, ORYSAT ([8]; rate 0.1250 kg/ha): 2.0
- Postemergence herbicidal rating, ORYSAT ([8]; rate 0.2500 kg/ha): 7.5
- herbicidal rating, ECHORC ([9]; rate 0.0080 kg/ha): 0.0
- herbicidal rating, ECHORC ([9]; rate 0.0320 kg/ha): 3.0
- herbicidal rating, ECHORC ([9]; rate 0.1250 kg/ha): 6.0
- Postemergence herbicidal rating, ECHCG ([10]; rate 0.0320 kg/ha): 0.0
- Postemergence herbicidal rating, ECHCG ([10]; rate 0.0620 kg/ha): 0.0
- Postemergence herbicidal rating, ECHCG ([10]; rate 0.1250 kg/ha): 0.0
- Postemergence herbicidal rating, ECHCG ([10]; rate 0.2500 kg/ha): 0.0
- TRZAWR preemergence herbicidal rating ([11]; Rate 0.0620 kg/ha): 0.0
- TRZAWR preemergence herbicidal rating ([11]; Rate 0.1250 kg/ha): 0.0
- TRZAWR preemergence herbicidal rating ([11]; Rate 0.2500 kg/ha): 5.0
- herbicidal rating, CYPIR ([12]; rate 0.0080 kg/ha): 0.0
- herbicidal rating, CYPIR ([12]; rate 0.0320 kg/ha): 3.5
- herbicidal rating, CYPIR ([12]; rate 0.1250 kg/ha): 7.0
- GLXMAW preemergence herbicidal rating ([13]; Rate 0.0620 kg/ha): 0.0
- GLXMAW preemergence herbicidal rating ([13]; Rate 0.1250 kg/ha): 3.0
- GLXMAW preemergence herbicidal rating ([13]; Rate 0.2500 kg/ha): 5.0
